Measured values: PubChem BioAssay AID248 (DTP/NCI, 2004)
Inconclusive results and toxic doses are left out. Rule as the data show it: active = T/C of 150% or more; inactive = T/C below 125%.

Test system: L1210 leukemia ip in BDF1 mice, survival T/C
Assay: NCI In Vivo Anticancer Drug Screen. Data for tumor model L1210 Leukemia (intraperitoneal) in B6D2F1 (BDF1) mice
Settings: endpoint: mean survival time, higher = longer survival
Method in brief: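 Mice bearing the transplanted tumor received compound or vehicle. Survival of the treated group was divided by that of the vehicle-treated control group to give the ratio.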

[1] = dose: 25.0 mg/kg/injection, schedule: Q01DX009 (ip), vehicle: Klucel (hydroxypropylcellulose) (HPC)
[2] = dose: 50.0 mg/kg/injection, schedule: Q01DX009 (ip), vehicle: Klucel (hydroxypropylcellulose) (HPC)

Measured: T/C

O=C1C2C(C(=O)N1c1ccccc1)N2CCO (centres undefined)
inactive: dose: 100.0 mg/kg/injection, schedule: Q01DX009 (ip), vehicle: Klucel (hydroxypropylcellulose) (HPC) 107 % of control | dose: 100.0 mg/kg/injection, schedule: Q04DX003 (ip), vehicle: Klucel (hydroxypropylcellulose) (HPC) 113 % of control | dose: 200.0 mg/kg/injection, schedule: Q01DX009 (ip), vehicle: Klucel (hydroxypropylcellulose) (HPC) 103 % of control | dose: 200.0 mg/kg/injection, schedule: Q04DX003 (ip), vehicle: Klucel (hydroxypropylcellulose) (HPC) 108 % of control | dose: 400.0 mg/kg/injection, schedule: Q01DX009 (ip), vehicle: Klucel (hydroxypropylcellulose) (HPC) 97 % of control | dose: 400.0 mg/kg/injection, schedule: Q04DX003 (ip), vehicle: Klucel (hydroxypropylcellulose) (HPC) 113 % of control

CC1(C)CN(C(C)(C)C)CC(C)(C)C(O)C1=O (centres undefined)
inactive: dose: 100.0 mg/kg/injection, schedule: Q01DX001 (ip), vehicle: saline with Tween-80 96 % of control | dose: 200.0 mg/kg/injection, schedule: Q01DX001 (ip), vehicle: saline with Tween-80 91 % of control | dose: 400.0 mg/kg/injection, schedule: Q01DX001 (ip), vehicle: saline with Tween-80 93 % of control

CCCCCCCCCOc1ccc(C=Nc2ccc(CC)cc2)cc1
inactive: dose: 12.5 mg/kg/injection, schedule: Q01DX009 (ip), vehicle: Klucel (hydroxypropylcellulose) (HPC) 92 % of control | [1] 90 % of control | [2] 92 % of control

c1ccc2c(OCC3=NCCN3)cccc2c1
inactive: dose: 20.0 mg/kg/injection, schedule: Q01DX001 (ip), vehicle: Klucel (hydroxypropylcellulose) (HPC) 104 % of control | [1] 105 % of control | dose: 40.0 mg/kg/injection, schedule: Q01DX001 (ip), vehicle: Klucel (hydroxypropylcellulose) (HPC) 104 % of control | [2] 106 % of control | dose: 80.0 mg/kg/injection, schedule: Q01DX001 (ip), vehicle: Klucel (hydroxypropylcellulose) (HPC) 102 % of control | dose: 100.0 mg/kg/injection, schedule: Q01DX001 (ip), vehicle: Klucel (hydroxypropylcellulose) (HPC) 109 % of control

Cc1ccc(S(=O)(=O)N/N=C/C(=O)O)cc1
inactive: dose: 10.0 mg/kg/injection, schedule: Q01DX009 (ip), vehicle: other 116 % of control | dose: 15.0 mg/kg/injection, schedule: Q01DX009 (ip), vehicle: other 118 % of control | dose: 50.0 mg/kg/injection, schedule: Q01DX009 (ip), vehicle: water 108 % of control | dose: 75.0 mg/kg/injection, schedule: Q01DX001 (ip), vehicle: saline 119 % of control | dose: 100.0 mg/kg/injection, schedule: Q01DX009 (ip), vehicle: saline with Tween-80 120 % of control | dose: 100.0 mg/kg/injection, schedule: Q01DX009 (ip), vehicle: water 92 % of control | dose: 112.0 mg/kg/injection, schedule: Q01DX009 (ip), vehicle: other 97 % of control | dose: 144.0 mg/kg/injection, schedule: Q04DX003 (ip), vehicle: saline with Tween-80 97 % of control | dose: 150.0 mg/kg/injection, schedule: Q01DX009 (ip), vehicle: saline with Tween-80 116 % of control | dose: 200.0 mg/kg/injection, schedule: Q01DX009 (ip), vehicle: saline with Tween-80 112 % of control | dose: 240.0 mg/kg/injection, schedule: Q04DX003 (ip), vehicle: saline with Tween-80 107 % of control | dose: 400.0 mg/kg/injection, schedule: Q04DX003 (ip), vehicle: saline with Tween-80 108 % of control | dose: 500.0 mg/kg/injection, schedule: Q01DX009 (ip), vehicle: saline with Tween-80 117 % of control
active: dose: 27.0 mg/kg/injection, schedule: Q01DX009 (ip), vehicle: saline 158 % of control | dose: 33.0 mg/kg/injection, schedule: Q01DX009 (ip), vehicle: other 166 % of control | dose: 40.0 mg/kg/injection, schedule: Q01DX009 (ip), vehicle: saline 153 % of control | dose: 90.0 mg/kg/injection, schedule: Q01DX009 (ip), vehicle: saline 164 % of control

N#CC1CC=CCC1 (centres undefined)
inactive: dose: 6.25 mg/kg/injection, schedule: Q01DX009 (ip), vehicle: saline 113 % of control | dose: 6.25 mg/kg/injection, schedule: Q04DX003 (ip), vehicle: saline 101 % of control | dose: 12.5 mg/kg/injection, schedule: Q01DX009 (ip), vehicle: saline 121 % of control | dose: 12.5 mg/kg/injection, schedule: Q04DX003 (ip), vehicle: saline 90 % of control | dose: 25.0 mg/kg/injection, schedule: Q01DX009 (ip), vehicle: saline 103 % of control | dose: 25.0 mg/kg/injection, schedule: Q04DX003 (ip), vehicle: saline 113 % of control

CC(C)(CO)NCc1ccc(O)cc1
inactive: dose: 100.0 mg/kg/injection, schedule: Q01DX001 (ip), vehicle: carboxymethylcellulose (CMC) 96 % of control | dose: 200.0 mg/kg/injection, schedule: Q01DX001 (ip), vehicle: carboxymethylcellulose (CMC) 100 % of control | dose: 400.0 mg/kg/injection, schedule: Q01DX001 (ip), vehicle: carboxymethylcellulose (CMC) 96 % of control
